# What was measured:
# [1] = molecular target: T1, recombinant human FLAP protein (Homo sapiens, UniProt P20292); test: FLAP binding assay (SPA, displacement of [125I]L-691,831); settings: membranes of sf9 cells expressing human FLAP, [125I]L-691,831 probe; read-out: hFLAP binding IC50
# T1 construct: made in house; host or cells: Sf9 insect cells (membrane fraction, 100,000 x g pellet)
# T1 sequence (P20292 1-161): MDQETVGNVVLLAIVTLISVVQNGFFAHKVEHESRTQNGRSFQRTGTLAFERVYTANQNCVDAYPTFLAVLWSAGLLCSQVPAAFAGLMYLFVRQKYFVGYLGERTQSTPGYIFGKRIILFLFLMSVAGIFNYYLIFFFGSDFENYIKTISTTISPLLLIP
# Experimental: Compounds are assessed for the ability to bind to FLAP in a binding assay that measures compound-specific displacement of an iodinated (^125I) FLAP inhibitor via a Scintillation Proximity Assay format (adapted from S. Charleson et al., Mol. Pharmacol., 1992, 41, 873-879).
# Cell pellets produced from sf9 insect cells expressing recombinant human FLAP protein are resuspended in buffer A [15 mM Tris-HCl (pH 7.5), 2 mM MgCl2, 0.3 mM EDTA, 1 mM PMSF]. The cells are lysed with a Dounce homogenizer and the material is centrifuged at 10,000×g for 10 minutes. The supernatant is then collected and centrifuged at 100,000×g for 60 minutes. To prepare membrane protein for an assay, an aliquot of the 100,000×g pellet is resuspended in 1 ml of buffer A, Dounce homogenized, and finally subjected to polytron mixing (30 seconds). Membrane protein (25 μl, 5 μg) is mixed with WGA SPA beads (Amersham) and stirred for 1 h. To an assay plate (Perkin Elmer FlexiPlate) is added 25 μl of test compound prepared in Binding buffer [100 mM Tris (pH 7.5), 140 mM NaCl, 5% glycerol, 2 mM EDTA, 0.5 mM TCEP, 0.05% Tween 20], 25 μl of [^125I]L-691,831 (an iodinated analog of MK-591, Charleson et al. Mol. Pharmacol., 41, 873-879, 1992) and finally 50 μl of the bead/protein mixture. (final concentrations: beads, 200 μg/well; protein, 5μg/well; [^125I] probe, 0 08 nM/well(17 nCi/well). The plates are shaken for 2 h before reading on a Microbeta plate reader. Non-specific binding is determined by the addition of 10 μM cold L-691,831 compound.
# [2] = system: synthesis of LTB4 in human whole blood; test: Human whole blood LTB4 production inhibition assay; format: cell-based; settings: heparinized human whole blood, calcimycin 20 μM, plasma LTB4; read-out: HuWB IC50
# Experimental: Compounds are additionally tested in a human whole blood assay to determine their ability to inhibit the synthesis of LTB4 in a cellular system. Compounds are combined with heparinized human whole blood and incubated for 15 minutes at 37° C. Calcimycin (20 μM final, prepared in phosphate-buffered saline, pH 7.4) is then added and the mixture is incubated for another 30 minutes at 37° C. The samples are centrifuged for 5 min at low speed (1500×g) and the plasma layer is removed. Plasma LTB4 concentrations are then measured using an antibody-based homogenous time-resolved fluorescence method (CisBio, Bedford, Mass.).
Compound,IC50 [1] [nM],IC50 [2] [nM]
"Cc1nc(-c2ccc(NC(=O)C3(c4ccc(-c5cnc(N)nc5)cc4)CCOCC3)nc2)cs1 [Example 122, 4-[4-(2-aminopyrimidin-5-yl)phenyl]-N-[5-(2-methyl-1,3-thiazol-4-yl)pyridin-2-yl]tetrahydro-2H-pyran-4-carboxamide]",9.53,1040
"Nc1ncc(-c2ccc(C3(C(=O)Nc4nc(-c5ccncc5)cs4)CCOCC3)cc2)cn1 [Example 60, 4-[4-(2-aminopyrimidin-5-yl)phenyl]-N-[4-(pyridin-4-yl)-1,3-thiazol-2-yl]tetrahydro-2H-pyran-4-carboxamide]",3.5,310
"COc1ccc(-c2ccc(NC(=O)C(C)(c3ccc(-c4cnc5c(c4)CCN5)cc3)C(C)C)nc2)cn1 (stereo not drawn) [Example 164, 2-[4-(2,3-dihydro-1H-pyrrolo[2,3-b]pyridin-5-yl)phenyl]-N-(6'-methoxy-3,3'-bipyridin-6-yl)-2,3-dimethylbutanamide]",1.9,315
"O=C(Nc1ccc(Oc2ccccc2)cn1)C1(c2ccc(-c3cnc4[nH]ccc4c3)cc2)CCC1 [Example 198, N-(5-phenoxypyridin-2-yl)-1-[4-(1H-pyrrolo[2,3-b]pyridin-5-yl)phenyl]cyclobutane-carboxamide]",3.75,180
"CC(C)C(C)(C(=O)Nc1ccncc1)c1ccc(-c2cnc(N)nc2)cc1 (stereo not drawn) [Example 169, 2-[4-(2-aminopyrimidin-5-yl)phenyl]-2,3-dimethyl-N-(pyridin-4-yl)butanamide]",5.25,330
"Nc1ncc(-c2ccc(C3(C(=O)Nc4cnccn4)CCC3)cc2)cn1 [Example 214, 1-[4-(2-aminopyrimidin-5-yl)phenyl]-N-(pyrazin-2-yl)cyclobutanecarboxamide]",24,1070
"Nc1ncc(-c2ccc(C3(C(=O)Nc4cccnc4)CCC3)cc2)cn1 [Example 183, 1-[4-(2-aminopyrimidin-5-yl)phenyl]-N-(pyridin-3-yl)cyclobutanecarboxamide]",51.6,480
"Cn1nccc1-c1ccc(NC(=O)C2(c3ccc(-c4cnc(N)nc4)cc3)CCC2)nc1 [Example 106, 1-[4-(2-aminopyrimidin-5-yl)phenyl]-N-[5-(1-methyl-1H-pyrazol-5-yl)pyridin-2-yl]cyclobutanecarboxamide]",3,195
"Cc1nc(-c2ccc(NC(=O)C3(c4ccc(-c5cnc(N)nc5)cc4)CCOCC3)cc2)cs1 [Example 121, 4-[4-(2-aminopyrimidin-5-yl)phenyl]-N-[4-(2-methyl-1,3-thiazol-4-yl)phenyl]tetrahydro-2H-pyran-4-carboxamide]",19,1880
"COc1ncc(-c2ccc(C(C)(C(=O)Nc3ccc(-c4csc(C)n4)cc3)C(C)C)cc2)cn1 (stereo not drawn) [Example 116, 2-[4-(2-methoxypyrimidin-5-yl)phenyl]-2,3-dimethyl-N-[4-(2-methyl-1,3-thiazol-4-yl)phenyl]butanamide]",430,10800
"Cc1nc(-c2ccc(NC(=O)C3(c4ccc(-c5cnc(N)nc5)cc4)CCC3)nc2)cs1 [Example 131, 1-[4-(2-aminopyrimidin-5-yl)phenyl]-N-[5-(2-methyl-1,3-thiazol-4-yl)pyridin-2-yl]cyclobutanecarboxamide]",2.2,414
"Nc1ncc(-c2ccc(C3(C(=O)Nc4ccc(N5CCOCC5)c(Cl)c4)CCC3)cc2)cn1 [Example 245, 1-[4-(2-aminopyrimidin-5-yl)phenyl]-N-[3-chloro-4-(morpholin-4-yl)phenyl]cyclobutanecarboxamide]",3.3,46
"Nc1ncc(-c2ccc(C3(C(=O)Nc4ccc(S(=O)(=O)N5CCOCC5)cc4)CCOCC3)cc2)cn1 [Example 64, 4-[4-(2-aminopyrimidin-5-yl)phenyl]-N-[4-(morpholin-4-ylsulfonyl)phenyl]tetrahydro-2H-pyran-4-carboxamide]",48,850
"COc1cncc(-c2ccc(C(C)(C(=O)Nc3cccc(-c4csc(C)n4)c3)C(C)C)cc2)c1 (stereo not drawn) [Example 113, 2-[4-(5-methoxypyridin-3-yl)phenyl]-2,3-dimethyl-N-[3-(2-methyl-1,3-thiazol-4-yl)phenyl]butanamide]",390,10400
"Nc1ncc(-c2ccc(C3(C(=O)Nc4ccc(N5CCCCC5)cc4)CCOCC3)cc2)cn1 [Example 149, 4-[4-(2-aminopyrimidin-5-yl)phenyl]-N-[4-(piperidin-1-yl)phenyl]tetrahydro-2H-pyran-4-carboxamide]",260,1460
"COc1cncc(-c2ccc(NC(=O)C3(c4ccc(-c5cnc(N)nc5)cc4)CCC3)nc2)c1 [Example 130, 1-[4-(2-aminopyrimidin-5-yl)phenyl]-N-(5'-methoxy-3,3'-bipyridin-6-yl)cyclobutanecarboxamide]",1.52,224
"Nc1ncc(-c2ccc(C3(C(=O)Nc4ccc(Oc5ccccc5)cn4)CCOCC3)cc2)cn1 [Example 173, 4-[4-(2-aminopyrimidin-5-yl)phenyl]-N-(5-phenoxypyridin-2-yl)tetrahydro-2H-pyran-4-carboxamide]",18,930
"N#Cc1ccc(NC(=O)C2(c3ccc(-c4cnc(N)c(CO)c4)cc3)CCOCC2)nc1 [Example 179, 4-{4-[6-amino-5-(hydroxymethyl)pyridin-3-yl]phenyl}-N-(5-cyanopyridin-2-yl)tetrahydro-2H-pyran-4-carboxamide]",24.7,388
"COC(=O)c1sc(-c2ccccc2)cc1NC(=O)C1(c2ccc(-c3cnc(N)nc3)cc2)CCOCC1 [Example 30, methyl 3-[({4-[4-(2-aminopyrimidin-5-yl)phenyl]tetrahydro-2H-pyran-4-yl}carbonyl)amino]-5-phenylthiophene-2-carboxylate]",18,2240
"COc1cncc(-c2ccc(NC(=O)C3(c4ccc(-c5cnc(N)nc5)cc4)CCOCC3)nc2)c1 [Example 135, 4-[4-(2-aminopyrimidin-5-yl)phenyl]-N-(5'-methoxy-3,3'-bipyridin-6-yl)tetrahydro-2H-pyran-4-carboxamide]",11.1,738
"Cc1cc(NC(=O)C2(c3ccc(-c4cnc(N)nc4)cc3)CCC2)ccn1 [Example 186, 1-[4-(2-aminopyrimidin-5-yl)phenyl]-N-(2-methylpyridin-4-yl)cyclobutanecarboxamide]",3.2,334
"Nc1ncc(-c2ccc(C3(C(=O)Nc4cccc(-c5ccncc5)c4)CCOCC3)cc2)cn1 [Example 33, 4-[4-(2-aminopyrimidin-5-yl)phenyl]-N-[3-(pyridin-4-yl)phenyl]tetrahydro-2H-pyran-4-carboxamide]",42.5,> 3000
"Nc1ncc(-c2ccc(C3(C(=O)Nc4ccc(C(F)(F)F)cc4)CCOCC3)cc2)cn1 [Example 41, 4-[4-(2-aminopyrimidin-5-yl)phenyl]-N-[4-(trifluoromethyl)phenyl] tetrahydro-2H-pyran-4-carboxamide]",120,> 3000
"CCC(C)(C(=O)Nc1ccc(-c2csc(C)n2)cn1)c1ccc(-c2cnc(N)nc2)cc1 (stereo not drawn) [Example 228, 2-[4-(2-aminopyrimidin-5-yl)phenyl]-2-methyl-N-[5-(2-methyl-1,3-thiazol-4-yl)pyridin-2-yl]butanamide]",12,1100
"CC(C)C(C)(C(=O)Nc1cccnc1)c1ccc(-c2cnc3[nH]ccc3c2)cc1 (stereo not drawn) [Example 180, 2,3-dimethyl-N-(pyridin-3-yl)-2-[4-(1H-pyrrolo[2,3-b]pyridin-5-yl)phenyl]butanamide]",6.3,402
"Nc1ncc(-c2ccc(C3(C(=O)Nc4ccncc4)CCCC3)cc2)cn1 [Example 230, 1-[4-(2-aminopyrimidin-5-yl)phenyl]-N-(pyridin-4-yl)cyclopentanecarboxamide]",21.5,696
"CC(C)C(C)(C(=O)Nc1cccnc1)c1ccc(-c2cnc(N)nc2)cc1 (stereo not drawn) [Example 184, 2-[4-(2-aminopyrimidin-5-yl)phenyl]-2,3-dimethyl-N-(pyridin-3-yl)butanamide]",39,1470
